The text below walks through data of patent US20030225081A1, “Pyridazinones and triazinones and medicinal use thereof” (priority 2000, published 2003).

For orientation: IC50 means the midpoint of a concentration-inhibition curve.

One assay has as its system AMPA receptor. As to the kind of experiment: Suppressing action to calcium influx into nerve cells induced by AMPA. To be noted: Fura2-AM, stimulation with 2 μM AMPA, primary culture of rat embryo cerebral cortex nerve cells, 1 μM MK-801. Format: cell-based. In outline: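 Rat E18 cortical neurons grown on astrocyte feeder layers for 8–10 days or more, with 1 μM MK-801 in the medium. Cells were Fura2-AM-loaded for 1 h, then stimulated with 2 μM AMPA in Tyrode containing 1 μM MK-801. Calcium influx was read as the 340/380 nm excitation fluorescence change.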
Take `O=C1N(c2ccccc2)CC(c2ccccn2)=NN1c1ccccc1Br` [Example 88, 2-(2-Bromophenyl)-4-phenyl-6-(2-pyridyl)-4,5-dihydro-1,2,4-triazin-3 (2H)-one]: the IC50 was determined as 100 nM.

For the compound `N#Cc1ccccc1N1N=C(c2ccccn2)CN(c2ccccc2)C1=O` [Example 100, 2-(2-Cyanophenyl)-4-phenyl-6-(2-pyridyl)-4,5-dihydro-1,2,4-triazin-3 (2H)-one], the IC50 stood at 50 nM.

For `O=c1c(-c2cccnc2)cc(-c2ccccn2)nn1-c1ccccc1` [Example 59, 2-Phenyl-4-(3-pyridyl)-6-(2-pyridyl)-3 (2H)-pyridazinone], the IC50 stood at 600 nM.

As to `N#Cc1ccccc1N1N=C(c2ccccn2)CN(c2cccnc2)C1=O` [Example 103, 2-(2-Cyanophenyl)-6-(2-pyridyl)-4-(3-pyridyl)-4,5-dihydro-1,2,4-triazin-3 (2H)-one], the IC50 amounted to 100 nM.

As for `N#Cc1ccccc1N1N=C(c2ccccn2)CN(c2ccccn2)C1=O` [Example 102, 2-(2-Cyanophenyl)-6-(2-pyridyl)-4-(2-pyridyl)-4,5-dihydro-1,2,4-triazin-3 (2H)-one], the IC50 worked out at 100 nM.

`N#Cc1ccccc1-n1nc2c(c(-c3cccnc3)c1=O)COc1ccccc1-2` [Example 9, 2-(2-Cyanophenyl)-4-(3-pyridyl)-2,3-dihydro-5H-(1)benzopyrano[4,3-c]pyridazin-3-one]: the IC50 worked out at 20 nM.

For the compound `O=C1C(c2ccccc2O)CC(c2ccccn2)=NN1c1ccccc1Br` (centres unmarked) [Example 29, 2-(2-Bromophenyl)-4-(2-hydroxyphenyl)-6-(2-pyridyl)-4,5-dihydro-3 (2H)-pyridazinone], the half-maximal inhibitory concentration (IC50) came to 100 nM.

The test system of the next assay is convulsion induced by AMPA. Kind of assay: Anticonvulsant action induced by AMPA. It counts as in vivo, mice of ddy strain. To be noted: 25 mg/kg orally, mice; AMPA injected into lateral ventricle 30 minutes or 1 hour after administration. As to the method: Anticonvulsant Action Induced by AMPA A test compound was suspended in a 0.5% methyl cellulose solution or in sesame oil and was orally administered (25 mg/kg) to male mice of ddy strain. After 30 minutes or 1 hour from the oral administration, AMPA was continuously injected ([…]/5 μl/minute/mouse) into lateral ventricle to induce the convulsions. The effect was judged by a time-extending action until the convulsion takes place by a continuous injection of AMPA.
For `O=C1N(c2ccccc2)CC(c2ccccn2)=NN1c1ccccc1Br` [Example 88, 2-(2-Bromophenyl)-4-phenyl-6-(2-pyridyl)-4,5-dihydro-1,2,4-triazin-3 (2H)-one], the “anticonvulsant action (time-extending action until the convulsion takes place)” value (“anticonvulsant action” below) is given as “significantly inhibited the convulsion induced by AMPA”.

With `N#Cc1ccccc1N1N=C(c2ccccn2)CN(c2ccccc2)C1=O` [Example 100, 2-(2-Cyanophenyl)-4-phenyl-6-(2-pyridyl)-4,5-dihydro-1,2,4-triazin-3 (2H)-one], the “anticonvulsant action” value is “significantly inhibited the convulsion induced by AMPA”.

`O=c1c(-c2cccnc2)cc(-c2ccccn2)nn1-c1ccccc1` [Example 59, 2-Phenyl-4-(3-pyridyl)-6-(2-pyridyl)-3 (2H)-pyridazinone]: the “anticonvulsant action” value is recorded as “significantly inhibited the convulsion induced by AMPA”.

In the case of `N#Cc1ccccc1N1N=C(c2ccccn2)CN(c2cccnc2)C1=O` [Example 103, 2-(2-Cyanophenyl)-6-(2-pyridyl)-4-(3-pyridyl)-4,5-dihydro-1,2,4-triazin-3 (2H)-one], the “anticonvulsant action” value is recorded as “significantly inhibited the convulsion induced by AMPA”.

Regarding `N#Cc1ccccc1N1N=C(c2ccccn2)CN(c2ccccn2)C1=O` [Example 102, 2-(2-Cyanophenyl)-6-(2-pyridyl)-4-(2-pyridyl)-4,5-dihydro-1,2,4-triazin-3 (2H)-one], the “anticonvulsant action” value is “significantly inhibited the convulsion induced by AMPA”.

For `N#Cc1ccccc1-n1nc2c(c(-c3cccnc3)c1=O)COc1ccccc1-2` [Example 9, 2-(2-Cyanophenyl)-4-(3-pyridyl)-2,3-dihydro-5H-(1)benzopyrano[4,3-c]pyridazin-3-one], the “anticonvulsant action” value is listed as “significantly inhibited the convulsion induced by AMPA”.

Take `O=C1C(c2ccccc2O)CC(c2ccccn2)=NN1c1ccccc1Br` (centres unmarked) [Example 29, 2-(2-Bromophenyl)-4-(2-hydroxyphenyl)-6-(2-pyridyl)-4,5-dihydro-3 (2H)-pyridazinone]: the “anticonvulsant action” value is “significantly inhibited the convulsion induced by AMPA”.
